Test results taken from PMC12040169 (PLOS Biology, 2025).

test: in vitro; conditions: human, hela cells, % viability

| SMILES | viability at 28.5 h, 10 µM |
| --- | --- |
| O=C(CCS(=O)(=O)c1ccccc1)Nc1cccnc1N1CCNCC1 [CBK028262T] | 103% |
| CN(CC(=O)Nc1cccnc1N1CCNCC1)C(=O)c1ccccc1 [CBK028264T] | 95.8% |
| O=C(Nc1ccc(N2CCNCC2)nc1)C1(c2ccccc2)CCCCC1 [CBK028269T] | 97.8% |
| O=C(CCCOc1ccccc1)Nc1ccc(N2CCNCC2)nc1 [CBK028270T] | 98.2% |
| O=C(COc1ccccc1)Nc1cccc(N2CCNCC2)c1 [CBK028271T] | 100% |
| COc1ccc(CCCC(=O)Nc2ccc(N3CCNCC3)nc2)cc1OC [CBK028272T] | 82.4% |
| O=C(Nc1ccc(N2CCNCC2)nc1)c1ccccc1 [CBK028277T] | 114% |
| O=C(CCC(=O)c1ccccc1)Nc1ccccc1N1CCNCC1 [CBK028284T] | 92.9% |
| CN(CC(=O)Nc1ccccc1N1CCNCC1)C(=O)c1ccccc1 [CBK028287T] | 99.3% |
| O=C(NCc1ccccc1OC1CCNC1)c1ccccc1 (centres unmarked) [CBK028301T] | 114% |
| C[C@H]1CC[C@H](C(=O)N2CCC[C@H]2C(=O)O)CC1 [CBK028320] | 81.9% |
| Cc1ccc2c(c1)CCCN2C(=O)c1csc2c(C(F)(F)F)cc(N3CCOCC3)nc12 [CBK028367] | 116% |
| COc1ccc(CCCC(=O)Nc2cc3ccccc3c(N3CCNCC3)n2)cc1OC [CBK028417T] | 90.3% |
| O=C(CCC(=O)c1ccccc1)Nc1cc2ccccc2c(N2CCNCC2)n1 [CBK028418T] | 106% |
| O=C(CCS(=O)(=O)c1ccccc1)Nc1cc2ccccc2c(N2CCNCC2)n1 [CBK028419T] | 88.1% |
| O=C(Nc1cc2ccccc2c(N2CCNCC2)n1)c1ccccc1 [CBK028423T] | 104% |
| COc1ccc(CCCC(=O)NCc2ccc(OC3CCNCC3)cc2)cc1OC [CBK028428T] | 94.9% |
| COc1ccc(CCCC(=O)Nc2cncc(OC3CCNCC3)n2)cc1OC [CBK028437T] | 87.3% |
| O=C(CCS(=O)(=O)c1ccccc1)Nc1cncc(OC2CCNCC2)n1 [CBK028438T] | 94.1% |
| CN(CC(=O)Nc1cncc(OC2CCNCC2)n1)C(=O)c1ccccc1 [CBK028440T] | 105% |
| O=C(Cc1c[nH]c2ccccc12)Nc1cncc(OC2CCNCC2)n1 [CBK028441T] | 91% |
| CCOC(=O)CNC(=S)N[C@H]1CC[C@@]2(c3cccnc3)CCN(Cc3ccccc3)[C@H]2C1 [CBK028453] | 115% |
| NCCNc1cccc2c1ccn2S(=O)(=O)c1ccccc1 [CBK028470C] | 80.2% |

| SMILES | viability at 28.5 h, 10 µM |
| --- | --- |
| CN1CCN(c2cc(C(F)(F)F)c3scc(C(=O)NCCC4=CCCCC4)c3n2)CC1 [CBK028474] | 110% |
| CCCNC(c1ccccc1)c1ccncc1 (centres unmarked) [CBK028505] | 96.7% |
| CCOC(=O)N1CCC(NCC(C)(C)CN(C)C)CC1 [CBK028516] | 96.2% |
| COc1nc2nonc2nc1OC [CBK028544] | 110% |
| CCN(CC)C(=O)c1c(NS(=O)(=O)c2ccc(C)cc2)sc2c1CCCC2 [CBK028627] | 111% |
| O=C(c1c(NS(=O)(=O)c2ccc3ccccc3c2)sc2c1CCCC2)N1CCOCC1 [CBK028636] | 94.4% |
| COC(=O)c1ccc(NS(=O)(=O)c2cc(Cl)sc2Cl)cc1 [CBK028684] | 107% |
| Cc1nc(-c2nnc3ccc(Cl)nn23)c(Br)[nH]1 [CBK028706B] | 87.5% |
| Nc1nc(Cc2ccc(F)cc2)no1 [CBK028717] | 110% |
| CCOC(=O)c1cc(C(N)=S)c(C)nc1C(F)(F)F [CBK028734] | 92.8% |
| CSc1cccc(NC(=S)N2CCCCC2CCN2CCOCC2)c1 (centres unmarked) [CBK028765] | 83.9% |
| O=C(NC(=O)N1CCSC1)c1c(Cl)cccc1Cl [CBK028794] | 85.3% |
| CSc1cc(-c2ccc(F)cc2)n[nH]1 [CBK028809] | 123% |
| O=C(Nc1nccs1)c1ncn[nH]1 [CBK028821] | 102% |
| COc1ccc(-c2n[nH]c(N)n2)cc1 [CBK028843] | 116% |
| COCCNC(=O)C(C)SCc1ccccc1 (centres unmarked) [CBK028889] | 86.1% |
| CCNC(=O)/N=C(/N)Nc1nc2ccccc2s1 [CBK028890] | 72.1% |
| CC(C)Oc1ccc(C(F)(F)F)cc1N [CBK028895C] | 105% |
| CC(C)(C)OC(=O)N[C@@H](Cc1ccccc1)CN(Cc1ccccc1)Cc1ccc(S(=O)(=O)N2CCOC2=O)cc1 [CBK028952] | 86.1% |
| O=C(c1ccc(Br)o1)N1CCc2ccc(S(=O)(=O)N3CCOCC3)cc21 [CBK028953] | 100% |
| O=C(CN1CCOCC1)N1CCN(C(=O)c2ccc(Cl)cc2Cl)CC1 [CBK028992] | 97.7% |
| CC(C)NCC(O)COC1CCC(C(C)(C)C)CC1 (centres unmarked) [CBK029007C] | 89.2% |
| N#Cc1ccc(CN2C(=O)c3ccccc3C2=O)cc1 [CBK029022] | 100% |

| SMILES | viability at 28.5 h, 10 µM |
| --- | --- |
| COC(=O)c1ccc(CN2CCCC2)cc1 [CBK029023] | 106% |
| O=C(Nc1cccc(N2CCNCC2)c1)c1cccnc1 [CBK029414T] | 94.6% |
| O=C(Nc1cccc(N2CCNCC2)c1)c1ccnc2ccccc12 [CBK029416T] | 95.5% |
| O=C(Nc1cccnc1N1CCNCC1)c1ccoc1 [CBK029417T] | 95.4% |
| O=C(Nc1cccnc1N1CCNCC1)c1cc(F)cc(F)c1 [CBK029420T] | 92.3% |
| O=C(Nc1cccnc1N1CCNCC1)c1cccnc1 [CBK029426T] | 120% |
| O=C(Nc1ccc(N2CCNCC2)nc1)c1cnccn1 [CBK029436T] | 126% |
| O=C(Nc1ccc(N2CCNCC2)nc1)c1cccnc1 [CBK029439T] | 95.1% |
| O=C(Nc1ccccc1N1CCNCC1)c1ccoc1 [CBK029442T] | 96.2% |
| COc1ccc(C(=O)Nc2ccccc2N2CCNCC2)cc1 [CBK029447T] | 107% |
| Cn1cccc1C(=O)Nc1ccccc1N1CCNCC1 [CBK029450T] | 95.4% |
| O=C(NCc1ccccc1OC1CCNC1)c1ccccn1 (centres unmarked) [CBK029464T] | 91.6% |
| Cc1cccc(CN(CCCN)C(=O)Nc2ccc(C(C)(C)C)cc2)n1 [CBK033365C] | 98.3% |
| COc1cc(NC(=O)c2cccnc2)c(Cl)cc1NC(=O)c1ccc(Cl)cc1 [CBK033522] | 98.2% |
| COc1cc(NC(=O)Cn2nc([N+](=O)[O-])c(Cl)c2C)c(OC)cc1Cl [CBK033535] | 97.9% |
| COc1ccc(-c2cc(C(=O)Nc3nc4ccc(S(C)(=O)=O)cc4s3)c3ccccc3n2)cc1 [CBK033551] | 95.9% |
| CCOc1ccc(NC(=O)c2ccc(CN3CCOCC3)cc2)cc1 [CBK033557] | 89.7% |
| COc1ccc(CN2CCN(C(=O)c3ccccc3F)CC2)c(OC)c1 [CBK033601] | 125% |
| COc1cccc(CN2CCN(Cc3cc(OC)cc(OC)c3)CC2)c1 [CBK033622] | 91.2% |
| Cc1ccc(Cl)cc1N(Cc1ccc(C(=O)N2CCC(C)CC2)cc1)S(=O)(=O)c1ccccc1 [CBK033646] | 107% |
| Oc1ccc(SCCCCN2CCCCC2)cc1 [CBK033676] | 110% |
| Cc1ccc2nsnc2c1NC(=O)COc1ccc([N+](=O)[O-])cc1 [CBK033705] | 95.6% |
| O=C(CCN1CCN(CCO)CC1)Nc1ccc(Cl)cc1 [CBK033787] | 101% |

| SMILES | viability at 28.5 h, 10 µM |
| --- | --- |
| CC(=O)c1ccc(N(C)C)cc1 [CBK033830] | 106% |
| CCOC(=O)N1CCN(CC(O)COc2cc(C)c(Cl)c(C)c2)CC1 (centres unmarked) [CBK033833C] | 88.9% |
| CC(Nc1cc(N2CCN(CCO)CC2)ccc1[N+](=O)[O-])c1ccccc1 (centres unmarked) [CBK033838] | 106% |
| O=C(OCCN1CCOCC1)c1ccccc1I [CBK033860] | 95.4% |
| CCC(=O)c1cc(F)c(N2CCN(C(=O)c3cccs3)CC2)cc1C [CBK033892] | 104% |
| CC(=O)c1ccc(NC(=O)c2cccc(Cl)c2)cc1 [CBK033939] | 89.3% |
| Cc1cc(=O)oc2cc(OC(=O)C(Cc3ccccc3)N3C(=O)c4ccccc4C3=O)ccc12 (centres unmarked) [CBK033943] | 91.1% |
| COc1cc2c(cc1OC)CN(Cc1ccc(OCc3ccccc3)c(OC)c1)CC2 [CBK033974] | 93% |
| COc1ccc2c(ccn2S(=O)(=O)c2ccc(N3CCNCC3)c(C(F)(F)F)c2)c1 [CBK034033C] | 89.3% |
| Cc1c(Cl)cccc1S(=O)(=O)Nc1ccc(C(=O)O)cc1 [CBK034050] | 86.4% |
| O=C(O)c1ccc(NS(=O)(=O)Cc2ccccc2[N+](=O)[O-])cc1 [CBK034054] | 90.4% |
| Cc1ccc(S(=O)(=O)Nc2ccc(C(=O)O)cc2)cc1 [CBK034060] | 85.3% |
| O=C(O)c1ccc(NS(=O)(=O)Cc2ccccc2)cc1 [CBK034061] | 105% |
| O=C(O)c1ccc(NS(=O)(=O)/C=C/c2ccccc2)cc1 [CBK034062] | 100% |
| O=C(O)c1ccc(NS(=O)(=O)c2ccc(C(F)(F)F)cc2[N+](=O)[O-])cc1 [CBK034063] | 113% |
| O=C(Nc1cccc(N2CCNCC2)c1)c1coc2c1C(=O)CCC2 [CBK034113T] | 87.2% |
| COc1ccc(/C=C(\C)C(=O)Nc2cccc(N3CCNCC3)c2)cc1OC [CBK034115T] | 90.1% |
| Cc1oc(-c2ccccc2)cc1C(=O)Nc1ccc(N2CCNCC2)nc1 [CBK034127T] | 80.3% |
| O=C(/C=C/c1cccnc1)Nc1cccc(N2CCNCC2)c1 [CBK034128T] | 109% |
| O=C(NCc1ccccc1OC1CCNC1)c1ccc(-c2cccc(C(F)(F)F)c2)o1 (centres unmarked) [CBK034151T] | 101% |
| COc1ccc(/C=C(\C)C(=O)NCc2ccccc2OC2CCNC2)cc1OC (centres unmarked) [CBK034157T] | 90% |
| Cc1noc(C)c1CS(=O)(=O)Cc1ccc(Cl)cc1 [CBK034194] | 84.9% |

same assay, conditions: human, hela cells, % viability, bulk resorufin, single well

| SMILES | viability at 28.5 h, 10 µM |
| --- | --- |
| CSc1ccc(C(=O)C(C)(C)N2CCOCC2)cc1 [CBK028870] | 107% |
